Data reported in US20210371451A1, “CYCLIC-DI-AMP SODIUM SALT CRYSTAL” (Yamasa Corporation, priority 2018, published 2021).
Like-named read-outs stand apart in the source and are kept apart here.

Legend:
[1] = assay type: physicochemical; details: for purity of crystal by HPLC: 105° C.
Description: The purity of the c-di-AMP sodium salt in the crystal α obtained in Example 1 was analyzed by high performance liquid chromatography. As a result, the purity of c-di-AMP was 100%. Note that the high performance liquid chromatography was performed under the following conditions.
Column: Hydrosphere C18 (manufactured by YMC, Inc.)
Eluent: 0.1 M TEA-P (pH 6.0)+4.5% ACN
Detection method: detection at UV260 nm
The crystals obtained in the above Example 1, Example 2, Example 4, and Reference Example were allowed to stand under conditions at 105° C. Some crystals were sampled over time, and an aqueous solution was prepared therefrom. Then, the purity of each crystal was analyzed by high performance liquid chromatography. FIG. 18 and Table 6 show the results obtained.

[2] = pH 5
Description: The purified c-di-AMP was used to prepare a c-di-AMP aqueous solution with an OD257 of 2500 and at a pH of 5.0, 5.2, 5.4, 5.6, 5.8, 6.0, or 6.5. Each resulting c-di-AMP solution (0.2 mL) with an OD257 of 2500 was heated to 30° C. Next, 1 mL of 99.5% (w/w) ethanol was gently added. The mixture was then tightly sealed and allowed to stand overnight or for several days at 30° C. to precipitate crystals. The resulting crystals so precipitated were filtered through a membrane filter to yield wet crystals.
Dilution allowed for preparation of a c-di-AMP aqueous solution at a low concentration.

Nc1ncnc2c1ncn2[C@@H]1O[C@@H]2COP(=O)(O)O[C@H]3[C@@H](O)[C@H](n4cnc5c(N)ncnc54)O[C@@H]3COP(=O)(O)O[C@H]2[C@H]1O [Reference Example, c-di-AMP free acid, reference compound]
stability under severe conditions [1]: decreased stability
purity of crystal by HPLC ([1]; Day 0): 100.00%
purity of crystal by HPLC ([1]; Day 1): 91.81%
purity of crystal by HPLC ([1]; Day 2): 88.82%
purity of crystal by HPLC ([1]; Day 3): 86.46%
purity of crystal by HPLC ([1]; Day 4): 86.31%
purity of crystal by HPLC ([1]; Day 5): 85.42%

Nc1ncnc2c1ncn2[C@@H]1O[C@@H]2COP(=O)(O)O[C@H]3[C@@H](O)[C@H](n4cnc5c(N)ncnc54)O[C@@H]3COP(=O)(O)O[C@H]2[C@H]1O [c-di-AMP, Cyclic-di-AMP]
solubility [2]: low

c-di-AMP sodium salt [Example 1]
purity of crystal by HPLC ([1]; Day 0): 100.00%
purity of crystal by HPLC ([1]; Day 1, sodium salt): 98.75%
purity of crystal by HPLC ([1]; Day 2, sodium salt): 97.98%
purity of crystal by HPLC ([1]; Day 3, sodium salt): 97.98%
purity of crystal by HPLC ([1]; Day 4, sodium salt): 97.87%
purity of crystal by HPLC ([1]; Day 5, sodium salt): 97.15%

c-di-AMP sodium salt [Example 2]
purity of crystal by HPLC ([1]; Day 0): 100.00%
purity of crystal by HPLC ([1]; Day 1, sodium salt): 99.02%
purity of crystal by HPLC ([1]; Day 2, sodium salt): 98.73%
purity of crystal by HPLC ([1]; Day 3, sodium salt): 98.63%
purity of crystal by HPLC ([1]; Day 4, sodium salt): 99.02%
purity of crystal by HPLC ([1]; Day 5, sodium salt): 98.09%

c-di-AMP sodium salt [Example 4]
purity of crystal by HPLC ([1]; Day 0): 100.00%
purity of crystal by HPLC ([1]; Day 1, sodium salt): 99.65%
purity of crystal by HPLC ([1]; Day 2, sodium salt): 99.35%
purity of crystal by HPLC ([1]; Day 3, sodium salt): 99.14%
purity of crystal by HPLC ([1]; Day 4, sodium salt): 99.09%
purity of crystal by HPLC ([1]; Day 5, sodium salt): 98.93%
